Experimental data reported in ChEMBL document CHEMBL1201862, “PubChem BioAssay data set” (2004).
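These data come from cells grown in 96-well plates and exposed to compound for 48 hours at five concentrations. GI50: concentration for 50% inhibition of growth.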 Activity calls are given as the source filed them. Cut-off read from the data, not from the text of the source: active = GI50 up to about 1.1 µM and inactive = higher.

Experiments:
Experiment in all cases: inhibition of tumour cell growth, NCI panel, 48 h
[1] = system: 786-0
[2] = system: A498
[3] = system: ACHN
[4] = system: BT-549
[5] = system: CAKI-1
[6] = system: CCRF-CEM
[7] = system: COLO 205
[8] = system: DU-145
[9] = system: EKVX
[10] = system: HCT-116
[11] = system: HCT-15
[12] = system: HL-60
[13] = system: HOP-62
[14] = system: HT-29
[15] = system: Hs-578T
[16] = system: IGROV-1
[17] = system: K562
[18] = system: KM12
[19] = system: LOX IMVI
[20] = system: M14
[21] = system: MCF7
[22] = system: MDA-MB-231
[23] = system: MDA-MB-435
[24] = system: MDA-N
[25] = system: MOLT-4
[26] = system: Malme-3M
[27] = system: NCI-H226
[28] = system: NCI-H23
[29] = system: NCI-H460
[30] = system: NCI/ADR-RES
[31] = system: OVCAR-3
[32] = system: OVCAR-5
[33] = system: OVCAR-8
[34] = system: PC-3
[35] = system: RPMI-8226
[36] = system: RXF 393
[37] = system: SF-268
[38] = system: SF-295
[39] = system: SF-539
[40] = system: SK-MEL-2
[41] = system: SK-MEL-5
[42] = system: SK-OV-3
[43] = system: SN12C
[44] = system: SNB-19
[45] = system: SNB-75
[46] = system: SR
[47] = system: SW-620
[48] = system: T47D
[49] = system: TK-10
[50] = system: U-251
[51] = system: UACC-257
[52] = system: UACC-62
[53] = system: UO-31
[54] = system: A549
[55] = system: HCC 2998
[56] = system: HOP-92
[57] = system: NCI-H522
[58] = system: OVCAR-4
[59] = system: SK-MEL-28

With `COC(=O)c1cc2c3c(c(C(C)=O)c(OC)c2[nH]1)NCC3` the GI50 [1] was > 50 µM (inactive), the GI50 [2] was > 50 µM (inactive) and the GI50 [3] was > 50 µM (inactive). For the same molecule, the GI50 [4] was > 50 µM (inactive), the GI50 [5] was > 50 µM (inactive) and the GI50 [6] was > 50 µM (inactive). The GI50 [7] was > 50 µM (inactive), the GI50 [8] was > 50 µM (inactive) and the GI50 [9] was > 50 µM (inactive). The GI50 [10] was > 50 µM (inactive), the GI50 [11] was > 50 µM and the GI50 [12] was > 50 µM (inactive). For the same molecule, the GI50 [13] was > 50 µM (inactive), the GI50 [14] was > 50 µM (inactive) and the GI50 [15] was > 50 µM (inactive). The GI50 [16] was > 50 µM (inactive), the GI50 [17] was > 50 µM (inactive) and the GI50 [18] was > 50 µM (inactive). The GI50 [19] was > 50 µM (inactive), the GI50 [20] was > 50 µM (inactive) and the GI50 [21] was > 50 µM (inactive). For the same molecule, the GI50 [22] was > 50 µM (inactive), the GI50 [23] was > 50 µM (inactive) and the GI50 [24] was > 50 µM (inactive). For the same molecule, the GI50 [25] was > 50 µM (inactive), the GI50 [26] was > 50 µM (inactive) and the GI50 [27] was 34.5 µM (inactive). For the same molecule, the GI50 [28] was > 50 µM (inactive), the GI50 [29] was > 50 µM (inactive) and the GI50 [30] was > 50 µM (inactive). For the same molecule, the GI50 [31] was > 50 µM (inactive), the GI50 [32] was > 50 µM (inactive) and the GI50 [33] was > 50 µM (inactive). For the same molecule, the GI50 [34] was > 50 µM (inactive), the GI50 [35] was > 50 µM (inactive) and the GI50 [36] was > 50 µM (inactive). For the same molecule, the GI50 [37] was > 50 µM (inactive), the GI50 [38] was > 50 µM (inactive) and the GI50 [39] was > 50 µM (inactive). For the same molecule, the GI50 [40] was > 50 µM (inactive), the GI50 [41] was > 50 µM (inactive) and the GI50 [42] was > 50 µM (inactive). The GI50 [43] was > 50 µM (inactive), the GI50 [44] was > 50 µM (inactive) and the GI50 [45] was > 50 µM (inactive). The GI50 [46] was > 50 µM (inactive), the GI50 [47] was > 50 µM (inactive) and the GI50 [48] was > 50 µM (inactive). The GI50 [49] was > 50 µM (inactive), the GI50 [50] was > 50 µM (inactive) and the GI50 [51] was > 50 µM (inactive). For the same molecule, the GI50 [52] was > 50 µM (inactive) and the GI50 [53] was > 50 µM (inactive).
For `O=C1C=C(NCCOCCO)C(=O)c2c(O)ccc(O)c21`, the GI50 [1] was 37.4 µM (inactive), the GI50 [2] was > 100 µM (inactive) and the GI50 [54] was 28.1 µM (inactive). For the same molecule, the GI50 [3] was 27.2 µM (inactive), the GI50 [4] was > 100 µM (inactive) and the GI50 [5] was 43.3 µM (inactive). The GI50 [6] was 27.4 µM (inactive), the GI50 [7] was 17.1 µM (inactive) and the GI50 [8] was 99.3 µM (inactive). The GI50 [55] was 17.5 µM (inactive), the GI50 [10] was 22.5 µM (inactive) and the GI50 [11] was 22.9 µM. The GI50 [12] was 15.3 µM (inactive), the GI50 [13] was 58.6 µM (inactive) and the GI50 [56] was 24.3 µM (inactive). For the same molecule, the GI50 [14] was 20.4 µM (inactive), the GI50 [15] was 34.4 µM (inactive) and the GI50 [16] was 36.7 µM (inactive). The GI50 [17] was 27.9 µM (inactive), the GI50 [18] was 30.1 µM (inactive) and the GI50 [19] was 15.6 µM (inactive). The GI50 [20] was 22.5 µM (inactive), the GI50 [21] was 16 µM (inactive) and the GI50 [22] was 33.2 µM (inactive). The GI50 [23] was 18.2 µM (inactive), the GI50 [24] was 17.3 µM (inactive) and the GI50 [25] was 26.1 µM (inactive). For the same molecule, the GI50 [26] was 11.9 µM (inactive), the GI50 [27] was > 100 µM (inactive) and the GI50 [28] was 23.4 µM (inactive). The GI50 [29] was 29.2 µM (inactive), the GI50 [57] was 24 µM (inactive) and the GI50 [30] was 23.1 µM (inactive). For the same molecule, the GI50 [31] was 23.6 µM (inactive), the GI50 [58] was 18 µM (inactive) and the GI50 [32] was > 100 µM (inactive). The GI50 [33] was 28.2 µM (inactive), the GI50 [34] was 28.1 µM (inactive) and the GI50 [35] was 22.7 µM (inactive). The GI50 [36] was 33.3 µM (inactive), the GI50 [37] was 31.8 µM (inactive) and the GI50 [38] was 47.4 µM (inactive). The GI50 [39] was 24 µM (inactive), the GI50 [59] was 69 µM (inactive) and the GI50 [40] was 20.1 µM (inactive). The GI50 [41] was 13.2 µM (inactive), the GI50 [42] was 33.4 µM (inactive) and the GI50 [44] was 32.4 µM (inactive). For the same molecule, the GI50 [45] was 61.7 µM (inactive), the GI50 [47] was 18.1 µM (inactive) and the GI50 [48] was 23.8 µM (inactive). The GI50 [49] was > 100 µM (inactive), the GI50 [50] was 30.5 µM (inactive) and the GI50 [51] was 20.8 µM (inactive). The GI50 [52] was 14.5 µM (inactive) and the GI50 [53] was 59.8 µM (inactive).
